“And” between values parts separate entries of the source, which are not always exact repeats. Identical values can stand only once.
Columns and labels:
P. aeruginosa RP73 = experiment: Neutrophil bacterial co-culture (BKA) assay, P. aeruginosa RP73; format: cell-based; settings: 2 hours
Procedure: (§1) 24 hours prior to use, overnight cultures (ONCs) of all strains (P. aeruginosa: multidrug resistant Cystic Fibrosis isolate RP73 (Di Lorenzo et al (2015), Mol. Immunol., 63, 166-175); MRSA: Community acquired strain USA300 (Diep et al (2006), Lancet, 367, 731-739)) were prepared by inoculating 20 ml tryptic soy broth (3% w/v TSB in deionised water) with 2 stock cryobeads for 24 hours at 37° C., under shaking at 120 rpm (Sciquip mini incu shake). After incubation, ONCs were centrifuged at 2,800 g for 20 minutes at 4° C. The pellet was then resuspended in 10 ml Roswell Park Memorial Institute (RPMI) 1640 medium (commercially available from Sigma-Aldrich, UK). Optical density readings were then taken for all strains and diluted in RPMI 1640 to an OD of 0.015, equivalent of 1×10^7 cfu/ml.
Bacterial cultures were prepared as described above. 100 μl of 1×10^7 cfu/ml bacterial strains were added to either 100 μl RPMI 1640, 100 μl 1×10^7/ml neutrophils or increasing concentrations of Tobramycin (for P. aeruginosa) or Vancomycin (for MRSA) (1, 10, 100 μg/ml). These cultures were then incubated at 37° C., under shaking at 120 rpm for up to 24 hours. At 2, 6 and 24 hours, 20 μl aliquots of each sample were diluted in sterile RPMI at 1/10, 1/100, 1/1000, 1/10000, 1/100000 and 1/1000000 and plated on Tryptic Soy Agar (TSA) and incubated at 37° C. for 24 hours. Post incubation, bacterial colonies were manually counted and the total cfu content quantified.
(§2) To validate an in vitro model of neutrophil bacterial killing activity (BKA) assay, increasing concentrations of neutrophils (1×10^5, 5×10^5 and 1×10^6 neutrophils per sample) were incubated with 1×10^6 cfu/ml of the P. aeruginosa strain RP73 under suspension. These neutrophil/bacterial cultures were then incubated for 2 hours at 37° C. under 120 rpm of shaking. […] Post incubation, bacterial colonies were manually counted and the total cfu content quantified.

MRSA USA300 = experiment: Neutrophil bacterial co-culture (BKA) assay, MRSA USA300; format: cell-based, Staphylococcus aureus; settings: 2 hours
Procedure: The “MRSA assay” is carried out as follows: • a. admixing 100 μl of a 1×10^7 CFU/ml solution of MRSA strain USA300 in RPMI 1640 with 100 μl of a solution containing 1×10^7 granulocytes/ml; • b. incubating the admixture at 37° C. under shaking at 120 rpm; • c. taking a sample at 2 hours (diluting in sterile RPMI as needed) and plating on Tryptic Soy Agar; • d. incubating the plated sample at 37° C. for 24 hours; • e. counting the bacterial colonies; and • f. quantifying the total CFU content; and • g. calculating the % of MRSA cells killed based on the CFU content in steps a. and f using the formula ((CFU contentno effector−CFU contenteffector)/CFU contentno effector)×100.
as §1
Bacterial cultures were prepared as described above. […] Post incubation, bacterial colonies were manually counted and the total cfu content quantified.
as §2, with “suspension.” for “suspension. These neutrophil/bacterial cultures were then incubated for 2 hours at 37° C. under 120 rpm of shaking.”

NC[C@H]1O[C@H](O[C@H]2[C@H](O)[C@@H](O[C@H]3O[C@H](CO)[C@@H](O)[C@H](N)[C@H]3O)[C@H](N)C[C@@H]2N)[C@H](N)C[C@@H]1O [Tobramycin]
Bacterial Killing (%) (P. aeruginosa RP73; antibiotic 1 μg/ml): 6.60±2.22% and 6.60% | Bacterial Killing (%) (P. aeruginosa RP73; antibiotic 10 μg/ml): 77.78±13.40% and 77.78% | Bacterial Killing (%) (P. aeruginosa RP73; antibiotic 100 μg/ml): 95.37±2.87% | Bacterial Killing (%) (MRSA USA300; antibiotic 10 μg/ml): 25.05±6.13%

CN[C@H](CC(C)C)C(=O)N[C@H]1C(=O)N[C@@H](CC(N)=O)C(=O)N[C@H]2C(=O)N[C@H]3C(=O)N[C@H](C(=O)N[C@H](C(=O)O)c4cc(O)cc(O)c4-c4cc3ccc4O)[C@H](O)c3ccc(c(Cl)c3)Oc3cc2cc(c3O[C@@H]2O[C@H](CO)[C@@H](O)[C@H](O)[C@H]2O[C@H]2C[C@](C)(N)[C@H](O)[C@H](C)O2)Oc2ccc(cc2Cl)[C@H]1O [Vancomycin]
Bacterial Killing (%) (MRSA USA300; antibiotic 1 μg/ml): 5.73±3.70% and 5.73% | Bacterial Killing (%) (MRSA USA300; antibiotic 100 μg/ml): 92.58±2.01%

Source: patent US20240285681A1, “CELLS FOR TREATING INFECTIONS” (LIfT BioSciences Ltd, priority 2019, published 2024)
